Columns and labels:
[1] = tested on: Eschericia coli; assay: Bacterial panel testing, MIC by broth microdilution; assay type: cell-based; details: 20-24 hours growth
Procedure, shortened: (§1)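 Strains grown 2-4 h, 37° C, MH or BHI broth per strain; McFarland-standardized, diluted in media. Cpd 10 μg/ml in DMSO, 2-fold serial dilution cols 2-12. Rifampicin included. 20-24 h growth; clear wells scored.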

[2] = tested on: Salmonella choleraesuis; assay: as above; assay type: cell-based; details: 20-24 hours growth
Procedure, shortened: as §1

[3] = tested on: Pseudomonas aeruginosa; assay: as above; assay type: cell-based; details: 20-24 hours growth
Procedure, shortened: as §1

[4] = tested on: Staphylococcus aureus; assay: as above; assay type: cell-based; details: 20-24 hours growth
Procedure, shortened: as §1

[5] = tested on: Enterococcus faecium; assay: as above; assay type: cell-based; details: 20-24 hours growth
Procedure, shortened: as §1

[6] = tested on: Lungs cancer cells A549
[7] = tested on: P. aeruginosa (susceptible clinical isolate); assay: Potentiation of clinically used antibiotics, susceptible clinical isolate; assay type: cell-based, Pseudomonas aeruginosa; details: Table 3; antibiotic alone or mixed with PP compound
Experimental: (§2) One to three colonies of bacteria were picked from an Mueller-Hinton or Brain Heart infusion agar plate (depending on the bacterial strain) and transferred to 3 ml Mueller-Hinton broth or Brain Heart infusion media (depending on the bacterial strain). Bacteria were allowed to grow for 2-4 hours in an incubator at 37° C. Bacteria-inoculated media were dispersed in 0.9% saline to match McFarland standard density. 100 μl standardized inoculation was added to 20 ml media (dilution 1). 10 μl of the new dilution was added to 990 μl media and mixed (dilution 2). 10 μl of dilution 2 was spread on an agar plate and allowed to grow overnight. Colonies were then […].
(§3) Test compound was diluted to 10 μg/ml in dimethylsulfoxide. Four μl of Rifampicin antibiotic was loaded into row H, column 2.
All wells were then filled with 100 μl of inoculated media (dilution 1 from Example 1). A further 100 μl of the inoculated media was then added to column 2 and the contents are pipetted to thoroughly mix the contents. A full 100 μl was then transferred from column 2 and mixed into column 3. This process was continued from left to right until columns 2-12 were serially diluted, and the final draw from column 12 was discarded. The plates were covered with 3M sealing tape (plates containing Enterococcus faecium were sealed with Air Pore sealing tape) and allowed to grow for 20-24 hours. Cytotoxic wells (clear wells) are then scored and the potency of the compound was determined.
Numerous pathogenic bacteria have developed a resistance to many clinically used antibiotics. Following the protocols described herein, various compounds were mixed with clinically used antibiotics to treat Pseudomonas aeruginosa (P. aeruginosa).

[8] = tested on: Pseudomonas aeruginosa clinical isolate, multi-drug resistant; assay: Potentiation of clinically used antibiotics, multi-drug resistant clinical isolate; assay type: cell-based; details: Table 4, antibiotic alone or mixed with PP compound
Experimental: as §2, §3
All wells were then filled with 100 μl of inoculated media (dilution 1 from Example 1). A further 100 μl of the inoculated media was then added to column 2 and the contents are pipetted to thoroughly mix the contents. A full 100 μl was then transferred from column 2 and mixed into column 3. This process was continued from left to right until columns 2-12 were serially diluted, and the final draw from column 12 was discarded. […] Cytotoxic wells (clear wells) are then scored and the potency of the compound was determined. […]

Row | Compound | MIC EC [1] | MIC SC [2] | MIC PA [3] | MIC SA [4] | MIC EF [5] | Mammalian Cytotoxicity IC50 [6] | Activity of known antibiotics alone or in combination with compounds of the invention, P. aeruginosa (susceptible clinical isolate) [7] | MIC [8]
1 | O=C(NCC1OC2OC3C(CNC(=O)C4CCCN4)OC(OC4C(CNC(=O)C5CCCN5)OC(OC5C(CNC(=O)C6CCCN6)OC(OC6C(CNC(=O)C7CCCN7)OC(OC7C(CNC(=O)C8CCCN8)OC(OC8C(CNC(=O)C9CCCN9)OC(OC1C(O)C2O)C(O)C8O)C(O)C7O)C(O)C6O)C(O)C5O)C(O)C4O)C(O)C3O)C1CCCN1.O=C(O)C(F)(F)F.O=C(O)C(F)(F)F.O=C(O)C(F)(F)F.O=C(O)C(F)(F)F.O=C(O)C(F)(F)F.O=C(O)C(F)(F)F.O=C(O)C(F)(F)F (stereo not shown) | >200 µg/mL | >200 µg/mL | >200 µg/mL | >200 µg/mL | >200 µg/mL | 524 µg/mL | – | –
2 | Cl.Cl.Cl.Cl.Cl.Cl.Cl.Cl.Cl.Cl.Cl.Cl.Cl.Cl.NCCCC[C@@H](N)C(=O)NC[C@H]1O[C@@H]2O[C@H]3[C@H](O)[C@@H](O)[C@@H](O[C@H]4[C@H](O)[C@@H](O)[C@@H](O[C@H]5[C@H](O)[C@@H](O)[C@@H](O[C@H]6[C@H](O)[C@@H](O)[C@@H](O[C@H]7[C@H](O)[C@@H](O)[C@@H](O[C@H]8[C@H](O)[C@@H](O)[C@@H](O[C@H]1[C@H](O)[C@H]2O)O[C@@H]8CNC(=O)[C@H](N)CCCCN)O[C@@H]7CNC(=O)[C@H](N)CCCCN)O[C@@H]6CNC(=O)[C@H](N)CCCCN)O[C@@H]5CNC(=O)[C@H](N)CCCCN)O[C@@H]4CNC(=O)[C@H](N)CCCCN)O[C@@H]3CNC(=O)[C@H](N)CCCCN | >200 µg/mL | >200 µg/mL | >200 µg/mL | >200 µg/mL | >200 µg/mL | 2990 µg/mL | – | –
3 | I.I.I.I.I.I.I.N=C(N)SCC1OC2OC3C(CSC(=N)N)OC(OC4C(CSC(=N)N)OC(OC5C(CSC(=N)N)OC(OC6C(CSC(=N)N)OC(OC7C(CSC(=N)N)OC(OC8C(CSC(=N)N)OC(OC1C(O)C2O)C(O)C8O)C(O)C7O)C(O)C6O)C(O)C5O)C(O)C4O)C(O)C3O (stereo not shown) | >200 µg/mL | >200 µg/mL | >200 µg/mL | >200 µg/mL | >200 µg/mL | 480 µg/mL | – | –
4 | Cl.Cl.Cl.Cl.Cl.Cl.NCCCCSCC1OC2OC3C(CSCCCCN)OC(OC4C(CSCCCCN)OC(OC5C(CSCCCCN)OC(OC6C(CSCCCCN)OC(OC7C(CSCCCCN)OC(OC1C(O)C2O)C(O)C7O)C(O)C6O)C(O)C5O)C(O)C4O)C(O)C3O (stereo not shown) | >200 µg/mL | >200 µg/mL | >200 µg/mL | >200 µg/mL | >200 µg/mL | 589 µg/mL | – | –
5 | COc1cccc(OC)c1C(=O)N[C@@H]1C(=O)N2[C@@H]1SC(C)(C)[C@@H]2C(=O)O [Methicillin] | – | – | – | – | – | – | >100 | –
6 | CCn1cc(C(=O)O)c(=O)c2cc(F)c(N3CCNCC3)cc21 [Norfloxacin] | – | – | – | – | – | – | – | > 100 µg/mL
7 | CC1(C)S[C@@H]2[C@H](NC(=O)COc3ccccc3)C(=O)N2[C@H]1C(=O)O [Penicillin V] | – | – | – | – | – | – | >100 | –
8 | CN[C@H](CC(C)C)C(=O)N[C@H]1C(=O)N[C@@H](CC(N)=O)C(=O)N[C@H]2C(=O)N[C@H]3C(=O)N[C@H](C(=O)N[C@H](C(=O)O)c4cc(O)cc(O)c4-c4cc3ccc4O)[C@H](O)c3ccc(c(Cl)c3)Oc3cc2cc(c3O[C@@H]2O[C@H](CO)[C@@H](O)[C@H](O)[C@H]2O[C@H]2C[C@](C)(N)[C@H](O)[C@H](C)O2)Oc2ccc(cc2Cl)[C@H]1O [Vancomycin] | – | – | – | – | – | – | >100 | –

— US20110071108A1, “Beta-Cyclodextrin Derivatives as Antibacterial Agents” (Pinnacle Pharmaceuticals, Inc., priority 2005, published 2011)
